The source of these data is article PMC8308678, “Treatment with Micafungin in a Preterm Neonate with an Invasive Candida parapsilosis Infection after a Severe Terlipressin-Induced Skin Necrosis” (Pathogens, 2021).

In brackets after ≈: the same amount, converted by molar mass. Like-named read-outs stand apart in the source and are kept apart here. Starred links: 1 amine or outer side, 2 acyl side, 3 side chain; linkers in the order of their positions; H or OH if unused. Positions of bridges follow the written chain, without caps; N, C: chain ends. Non-standard residues stand in square brackets, D forms with d. Residues, ends and D or L forms follow the SMILES beside them. *: point of attachment. hTyr(3S-OH,4S-OH,3'-OSO3H) = N[C@H](C(=O)O)[C@H](O)[C@@H](O)c1ccc(O)c(OS(=O)(=O)O)c1; pTerphenylCO(4''-OnC5H11) = CCCCCOc1ccc(-c2ccc(-c3ccc(C(=O)*)cc3)cc2)cc1; Orn(4R-OH,5R-OH) = O=C([C@H](C[C@@H](O)[C@@H](O)N[*:3])N[*:1])[*:2]; hTyr(3S-OH,4S-OH) = N[C@H](C(=O)O)[C@H](O)[C@@H](O)c1ccc(O)cc1; Pro(3S-OH,4S-Me) = C[C@H]1CN[C@H](C(=O)O)[C@H]1O; X1 = CCCCCOc1ccc(-c2cc(-c3ccc(C(=O)*)cc3)no2)cc1; Gln(3R-OH) = NC(=O)C[C@@H](O)[C@H](N)C(=O)O; Hyp = O=C(O)[C@@H]1C[C@@H](O)CN1

One data set concerns Candida parapsilosis. As to the kind of experiment: microbe, parasite or virus in culture. The note with it: CLSI guidelines; for MIC: isolated Candida parapsilosis strain (cutaneous swab and urine culture); for Susceptibility of the isolated Candida strain: isolated Candida parapsilosis strain. It is filed as cell-based. How it is done:
(§1) Cutaneous swab and urine culture both yielded Candida parapsilosis. The fungal load in urine was 1,000,000 CFU/mL. Susceptibility tests were performed according to the Clinical and Laboratory Standards Institute (CLSI) guidelines. Blood cultures resulted negative, but the child had been on antimicrobial therapy for several days. The isolated Candida strain was susceptible to micafungin (MIC, 0.5 µg/mL), anidulafungin (MIC, 2 µg/mL), fluconazole (MIC, 0.5 µg/mL), itraconazole (MIC, 0.06 µg/mL), voriconazole (MIC, <0.008 µg/mL) and amphotericin B (MIC, 0.5 µg/mL). Among the effective antifungals, we chose micafungin because of the feasibility of plasma concentration monitoring via heel stick capillary samples [8]. After given and obtained informed consent from the parents, both in relation to the high dosage of micafungin to be administered and monitored and to the participation in clinical trials and publications, micafungin was administered intravenously at a dose of 8 mg/kg/day; it was diluted in 0.9% saline solution at a concentration of 2 mg/mL and infused intravenously through epicutaneo-cava catheter in one hour. Plasma micafungin concentrations were measured by high performance liquid chromatography (HPLC) on the third day of the starting of therapy. The lower limit of detection (LLOD) of micafungin was 0.5 mg/L, and the lower limit of quantification (LLOQ) was 1 mg/L. (Table 1).

Data set [1] can be described thus: Plasma micafungin concentration monitoring by HPLC. It is filed as in vivo, human preterm neonate. As to conditions: one patient. Here is the method: as §1
(§2) Given the severe clinical conditions of our patient, the epicutaneo-cava catheter was difficult to replace safely. The systemic therapy allowed complete infection control. […] We monitored plasma concentration of micafungin on 0.3 mL heel puncture blood samples, as previously described, in order to avoid excessive blood draws in a patient of low weight and in such severe clinical conditions.

Data set [2] concerns invasive Candida parapsilosis infection. In words: Clinical treatment of invasive Candida parapsilosis infection (case report). The class given is in vivo, human preterm neonate. As to conditions: 8 mg/kg/day; extremely preterm neonate with invasive Candida parapsilosis infection. How it is done: as §1, with “1). […]” for “1).”
Data set [3] deals with confirmed or suspected ICIs. As to conditions: 8 mg/kg/day; 35 neonates with confirmed or suspected ICIs; cited from earlier work. The source says: Invasive Candida infections (ICIs) are a major cause of morbidity and mortality among very preterm infants; Candida albicans is the most frequently occurring species, although Candida parapsilosis infections are increasingly reported in preterm neonates. Despite the high minimum inhibitory concentration (MIC) necessary for Candida parapsilosis eradication, echinocandins have a prominent role when an ICI occurs in very preterm infants. These patients often carry a central vascular catheter in which Candida parapsilosis forms a biofilm, due to its adherence properties that favo ...

The nature of data set [4]: Clinical tolerability of micafungin (case report). The class given is in vivo, human preterm neonate. The note with it: 8 mg/kg/day; for Side effects / tolerability: baby with previous cholestasis. How it is done:
as §2

Consider `OC(Cn1cncn1)(Cn1cncn1)c1ccc(F)cc1F` [fluconazole], for which, in the data set with Candida parapsilosis (read-out: MIC), the MIC worked out at 0.5 µg/mL (≈ 1.63 µM). Moreover, the “Susceptibility of the isolated Candida strain” value (from here on “Susceptibility”) with Candida parapsilosis was “susceptible”.
Turning to `CCCCCOc1ccc(-c2ccc(-c3ccc(C(=O)N[C@H]4C[C@@H](O)[C@@H](O)NC(=O)[C@@H]5[C@@H](O)[C@@H](C)CN5C(=O)[C@H]([C@@H](C)O)NC(=O)[C@H]([C@H](O)[C@@H](O)c5ccc(O)cc5)NC(=O)[C@@H]5C[C@@H](O)CN5C(=O)[C@H]([C@@H](C)O)NC4=O)cc3)cc2)cc1` [anidulafungin] ({pTerphenylCO(4''-OnC5H11)}-[Orn(4R-OH,5R-OH)]T[Hyp][hTyr(3S-OH,4S-OH)]T[Pro(3S-OH,4S-Me)]; lactam 1-C; N-terminus assumed), in the data set with Candida parapsilosis, the MIC is reported as 2 µg/mL (≈ 1.75 µM) and the “Susceptibility” value is on record as “susceptible”.
As to `C[C@@H](c1ncncc1F)[C@](O)(Cn1cncn1)c1ccc(F)cc1F` [voriconazole], in the data set on Candida parapsilosis (read-out: MIC), the MIC is under 0.008 µg/mL. The “Susceptibility” value in the data set with Candida parapsilosis was “susceptible”.
Take `CCCCCOc1ccc(-c2cc(-c3ccc(C(=O)N[C@H]4C[C@@H](O)[C@@H](O)NC(=O)[C@@H]5[C@@H](O)[C@@H](C)CN5C(=O)[C@H]([C@H](O)CC(N)=O)NC(=O)[C@H]([C@H](O)[C@@H](O)c5ccc(O)c(OS(=O)(=O)O)c5)NC(=O)[C@@H]5C[C@@H](O)CN5C(=O)[C@H]([C@@H](C)O)NC4=O)cc3)no2)cc1` [micafungin] (X1-[Orn(4R-OH,5R-OH)]T[Hyp][hTyr(3S-OH,4S-OH,3'-OSO3H)][Gln(3R-OH)][Pro(3S-OH,4S-Me)]; lactam 1-C): in the data set with Candida parapsilosis, the MIC came to 0.5 µg/mL (≈ 0.394 µM) and the “Susceptibility” value is on record as “susceptible”. The “Plasma Cmax/MIC ratio” value in data set [1] (8 mg/kg/day micafungin dose) is listed as over 10. In addition, the Cmax in data set [1] (human, in vivo, iv, 8 mg/kg/day i.v. over one hour, third day of therapy, plasma, HPLC, read-out: Plasma micafungin concentration, 1 h after infusion (C max)) turned out to be 11800 ng/mL. The level at -0.5 h in data set [1] (human, iv, 8 mg/kg/day i.v. over one hour, third day of therapy, plasma, HPLC, heel puncture blood samples, read-out: Plasma micafungin concentration, 30 min before infusion (C min)) was 3730 ng/mL. In addition, in data set [1] (human, iv, 8 mg/kg/day i.v. over one hour, third day of therapy, plasma, HPLC, read-out: Plasma micafungin concentration, 2 h after infusion), the level at 2 h was 9700 ng/mL. Moreover, the level at 8 h in data set [1] (human, iv, 8 mg/kg/day i.v. over one hour, third day of therapy, plasma, HPLC, read-out: Plasma micafungin concentration, 8 h after infusion) was 7900 ng/mL. For the same molecule, the Clinical efficacy result in data set [2] was “effective”. Moreover, the Response result in data set [3] was “high response”. For the same molecule, in data set [4], the “Side effects / tolerability” value was “did not cause side effects”. Besides, the “Side effects / tolerability” value in data set [4] (listed as Micafungin) is “well tolerated”. The “Aspartate aminotransaminase and alanine aminotransaminase” value in data set [4] (rapidly returned within normal range after discontinuation of therapy) is “transient increase”.
Consider `C[C@@H]1[C@H](O)[C@@H](C)/C=C/C=C/C=C/C=C/C=C/C=C/C=C/[C@H](O[C@@H]2O[C@H](C)[C@@H](O)[C@H](N)[C@@H]2O)C[C@@H]2O[C@](O)(C[C@@H](O)C[C@@H](O)[C@H](O)CC[C@@H](O)C[C@@H](O)CC(=O)O[C@H]1C)C[C@H](O)[C@H]2C(=O)O` [amphotericin B], for which the MIC in the data set with Candida parapsilosis (read-out: MIC) came to 0.5 µg/mL (≈ 0.541 µM). Further, the “Susceptibility” value in the data set with Candida parapsilosis is listed as “susceptible”.
For `CCC(C)n1ncn(-c2ccc(N3CCN(c4ccc(OCC5COC(Cn6cncn6)(c6ccc(Cl)cc6Cl)O5)cc4)CC3)cc2)c1=O` (stereo not shown) [itraconazole] the same measures were 0.06 µg/mL (≈ 0.085 µM) and “susceptible”.
